# Results published in patent US20240309322A1, “[…], METHOD FOR MAN[…], AND MA[…] AND MICROGLIA” (KEIO UNIVERSITY, priority 2021, published 2024).
# Tested on: SPI1 gene
# Assay: qRT-PCR of SPI1 gene expression on adding doxycycline (PU protocol)
# Assay type: cell-based, human
# Experimental: The expression level at the transcription level can be evaluated through, for example, quantitative reverse transcription PCR (qRT-PCR) using one obtained by reverse-transcribing mRNA prepared from target cells as a template.
# In the PU protocol, doxycycline (1 μg/mL) was added to the culture liquid from day 6 to day 18 from the start of culture.
# By adding doxycycline, the expression level of the SPI1 gene evaluated through qRT-PCR increased by at least about 50 times compared to a case without doxycycline.
smiles,measurement,setting,value
C[C@H]1c2cccc(O)c2C(=O)C2=C(O)[C@]3(O)C(=O)C(C(N)=O)=C(O)[C@@H](N(C)C)[C@@H]3[C@@H](O)[C@@H]21 [doxycycline],"expression level of the SPI1 gene evaluated through qRT-PCR, increase compared to a case without doxycycline","doxycycline 1 μg/mL in culture liquid from day 6 to day 18, SPI1-introduced hiPSC-derived cells",at least 50 times
same,expression level of the SPI1 gene with a primer set that selectively amplifies endogenous SPI1 gene,"regardless of the presence or absence of doxycycline, endogenous SPI1 only",1-2 times
